“Also recorded” adds a separate entry of the source. Where two headings read alike, the source gives them in different places.
How the values were obtained:
red blood cells (RBCs) = assay: SAMC incubated with red blood cells: formation and localization of AllylSH and DADS; format: cell-based; conditions: for extracellular AllylSH concentration: RBCs with 0.5 mM SAMC
Protocol: For these experiments, 0.25 ml of packed RBCs were suspended in 1.75 ml of phosphate buffer solution (PBS) along with an initial concentration 0.5 mM of SAMC.
The experimental results are graphed in FIG. 3.
The significant effect of glucose is due in part to the energy requirement for the reduction of GSSG to GSH by glutathione reductase, and the need for this “reductive power” to increase the concentration of thiols relative to the concentration of disulfides.

[1] = plasma albumin level as measure of plasma thiol/disulfide redox (applicant); format: in vivo, human
Source text: Subsequently, an alternative, simpler assay procedure for the thiol/disulfide ratio was found in the literature. Other researchers had determined that the level of plasma albumin correlates linearly with the thiol/disulfide redox (BLOOD92:59, in which paper this redox relationship is expressed by the cystine/thiol ratio).
This method of determination of the plasma redox is of great interest to the applicant because the albumin concentration is one of the standard measurements performed in medical lab reports. This meant that historical data was available that could show the age-related decline in albumin level and confirm its reversal with the administration of dietary supplement capsules containing protein bound allyl mercaptan. It could also be used to confirm that the effect was reversible (by discontinuing the administration of the capsules) and repeatable (by the resumption of the administration of the capsules).
The historical albumin levels for the applicant are as follows:
Over the next 3 months, an experiment was performed to determine whether this effect was reversible, and then to see if the effect was repeatable:
The age related initial decline of approximately −0.05 per year is also shown extended by a dotted trend line. The presumed departure from the trend that occurred when the supplement use was started is indicated by the first solid line segment.

[2] = n-octanol/water; cited from earlier work
[3] = HIV patients, 7 months, 600 mg/day to 3600 mg/day; cited from earlier work
[4] = in vivo; cited from earlier work
[5] = 8 weeks, 8000 mg/day; cited from earlier work
cells = conditions: cited from earlier work
[6] = first hour after consumption; cited from earlier work
mucosal cell = conditions: within 3 hours; cited from earlier work
trypsin enzyme inhibitor = conditions: soy flour, cysteine 2% by weight, 65 degrees C. for 1 hour; cited from earlier work
acetaminophen = conditions: mice, cited from earlier work
heapatocytes = conditions: hepatocytes exposed to acetaminophen, among 8 cysteine prodrugs tested; cited from earlier work
[7] = cited from earlier work

For `C=CCS` [AllylSH, AllylThiol], the membrane permeability (red blood cells (RBCs)) was “membrane permeable”, the “extracellular AllylSH concentration” value (red blood cells (RBCs); fed glucose) was “continued to rise significantly” and the “extracellular AllylSH concentration” value (red blood cells (RBCs); glucose starved) was “no increase in AllylSH after the initial rise”. The albumin level ([1]; 180 mg AllylSH each day) was 5.1 g/dL, the albumin level ([1]; +1 mo., AllylSH consumption discontinued) was 4.9 g/dL and the albumin level ([1]; donor one, ~20 mg AllylSH each day) was 5.0 g/dL. For the same molecule, the albumin level ([1]; donor two, ~20 mg AllylSH each day) was 5.0 g/dL, the albumin level ([1]; second +1 mo., AllylSH consumption still discontinued) was 4.5 g/dL and the albumin level ([1]; third +1 mo., consumption resumed at 180 mg AllylSH/day) was 4.7 g/dL. It also gave an albumin level ([1]; ~5 mg AllylSH/day) of 4.6 g/dL.

In the case of `C=CCSSCC=C` [DADS, Diallyl Disulfide], the partition coefficient [2] is listed as 25.

For `CC(=O)N[C@@H](CS)C(=O)O` [NAC, N-acetylcysteine], the plasma albumin increase [3] is listed as “approximately 5%”, the toxicity [4] is listed as “relatively non-toxic” and the toxicity [5] is listed as “no reported toxicity”. The “whole blood glutathione increase” value [5] was “approximately 10%”.

In the case of `O=C1N[C@H](C(=O)O)CS1` [OTZ, L-2-Oxo-thiazolidine], the toxicity [4] is listed as “relatively non-toxic”.

For `C=CCSSC[C@H](N)C(=O)O` [SAMC, S-AllylMercaptoCysteine], the “total glutathione level of cells” value (cells) is given as “significantly increase; also recorded: significant increases” and the “intracellular formation of AllylSH” value (red blood cells (RBCs); RBCs, 0.5 mM SAMC, 10 and 30 minutes, with glucose (10 mM) vs without glucose) is given as “significantly higher”.

In the case of `Cc1c(C)c2c(c(C)c1O)CC[C@@](C)(CCC[C@H](C)CCC[C@H](C)CCCC(C)C)O2` [alpha-tocopherol, reference compound], the partition coefficient [2] is listed as 550.

For `[AsH3]` [arsenic], the “excreted directly from the liver to the bile” value [6] is given as about 40% and the “glutathione concentration in the mucosal cell” value (mucosal cell) is given as “twice the normal concentration”.

For `N[C@@H](CS)C(=O)O` [cysteine, Cysteine], the “deactivation of trypsin enzyme inhibitor” value (trypsin enzyme inhibitor) is listed as “over 90%”.

In the case of D-glucose-L-cysteine [DGC], the “hepatic injury from acetaminophen administration” value (acetaminophen; administered 4 hours previously) is listed as “significantly reduced”, the “hepatic injury from acetaminophen administration” value (acetaminophen; administered simultaneously) is listed as “not effective” and the “raising the GSH level” value (heapatocytes) is listed as “most effective”.

For sodium arsenate, the liver glutathione level ([7]; protein deficient (6%) rats, control 74) is given as 134 micrograms per gram and the liver glutathione level ([7]; well fed rats (18% protein in the diet), control 88) is given as 123 micrograms per gram.
